Results taken from article PMC13079941 (Proceedings of the National Academy of Sciences of the …, 2026).

Biological target: T1, CsRD21a (Citrus sinensis, UniProt A0ACB8KUT6)
T1 construct: gene KPL71_016607; full-length, untagged, expressed transiently in Nicotiana benthamiana; secreted, prodomain removed in planta, active forms 25-35 kDa; concentrated apoplastic fluid, not purified
Test: competitive activity-based protein profiling, DCG-04 / streptavidin-HRP blot
Assay type: biochemical
Details: apoplastic fluid; 30 min preincubation; 50 mM sodium acetate pH 5.0, 5 mM DTT, room temperature

T1 sequence (A0ACB8KUT6 139-468): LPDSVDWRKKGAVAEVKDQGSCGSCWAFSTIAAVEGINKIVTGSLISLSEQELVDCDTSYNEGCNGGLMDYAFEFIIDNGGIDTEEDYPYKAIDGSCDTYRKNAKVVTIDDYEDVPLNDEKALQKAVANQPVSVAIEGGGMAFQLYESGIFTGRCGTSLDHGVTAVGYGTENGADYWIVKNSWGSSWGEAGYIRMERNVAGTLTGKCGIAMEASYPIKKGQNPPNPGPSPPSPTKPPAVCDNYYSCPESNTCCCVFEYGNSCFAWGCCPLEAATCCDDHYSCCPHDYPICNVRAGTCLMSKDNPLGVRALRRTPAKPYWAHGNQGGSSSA

CC(C)C[C@H](NC(=O)[C@H]1O[C@@H]1C(=O)O)C(=O)NCCCCNC(=N)N [E-64] was tested, and the “decrease of DCG-04 labelling, dosage-dependent” value was “This signal decreased in the presence of the cysteine protease inhibitor E-64 in a dosage-dependent manner”.
